# Test results from patent US20090118350A1, “Biomarkers for Identifying Efficacy of Tegaserod in Patients with Chronic Constipation” (priority 2005, published 2009).
# Assays:
# [1] = system: patients with chronic constipation; experiment: Weekly diary assessments (satisfaction with bowel habits, bothersome constipation, abdominal bloating, abdominal pain, global constipation relief) after 12 weeks, ANCOVA; assay type: in vivo, human; conditions: for weekly diary assessments, outcome: 6-mg bid vs placebo, 12 weeks; for Bothersome abdominal bloating, LS Mean Value / Bothersome abdominal pain, LS Mean Value / Bothersome constipation, LS Mean Value / Global constipation relief, LS Mean Value / Satisfaction with bowel habit, LS Mean Value: 12-wk, tegaserod 6-mg bid, lower value = better response
# Description: Clinical assessments. […] The primary efficacy endpoint evaluated was the increase of 1 or more CSBM/week over baseline after 4 weeks of treatment. A secondary endpoint evaluated in this genotyping study was RESP12, the increase of 1 of more CSBM/week over baseline after 12 weeks of treatment. Patients were classified as responders if they met these criteria and had completed at least 7 days of treatment. Additional secondary efficacy assessments were evaluated based on the weekly diary assessments, such as bothersome constipation, bothersome abdominal pain, and satisfaction with bowel habits at the end of the 12-week treatment period (using the baseline value as a co-variant for analysis). Additional secondary endpoints. In addition to the above assessments, 5 additional secondary efficacy endpoints were evaluated from the weekly diary assessments. These included the weekly changes in satisfaction with bowel habits, bothersome constipation, bothersome abdominal bloating, bothersome abdominal pain, and global constipation relief. TABLE 13 presents the results of analysis comparing the overall change in these parameters at the end of 12 weeks of treatment by treatment (tegaserod 6-mg bid vs. placebo) and whether they had 1 or more of the 12 “high responder” SNPs. An ANCOVA model was applied using the baseline value of these assessments as a quantitative co-variant.
# [2] = system: patients with chronic constipation; experiment: Response by serotonin transporter (SLC6A4) promoter insertion/deletion genotype; assay type: in vivo, human; conditions: for OR: tegaserod vs placebo
# Source text: Two major classes of insertion/deletion polymorphisms have been characterized for the SLC6A4 gene, one in intron 2 and another in the promoter region. SLC6A4 is the serotonin transporter gene, also know as SERT or HTT. Camilleri and colleagues reported that SLC6A4 promoter insertion/deletion polymorphism was associated with colonic transit response following treatment with the serotonin 5-HT3 receptor antagonist alosetron. Camilleri M et al., Gastroenterology; 123 (2):425-32 (2002). […] The overall response rates for C16-C16 were 48% for tegaserod and 21% for placebo (OR=3.51, 95% CI: 1.67-7.41) compared to the C14-C14 homozygotes at 45% for tegaserod and 27% for placebo (OR=2.3, 95% CI: 0.93-5.69) and C14-C16 heterozygotes at 43% for tegaserod and 28% for placebo (OR=1.95; 95% CI: 1.12-3.41). Within a given treatment group, there was no statistically significant difference between response rates between the different genotypes.
# [3] = system: chronic constipation patients; conditions: chronic constipation patients across North and South America; Johanson et al. 2004; cited from earlier work
smiles,measurement,setting,value
"[H]/N=C(/NCCCCC)N/N=C/c1c[nH]c2ccc(OC)cc12 [tegaserod, Tegaserod]","weekly diary assessments, outcome",[1]; all patients combined,better outcome compared to placebo
same,"weekly diary assessments, outcome","[1]; individuals with 1 or more of the 12 SNPs, all 5 assessments",significantly greater responses to tegaserod than placebo
same,"weekly diary assessments, outcome",[1]; individuals with none of the 12 SNPs,no treatment difference
same,"Bothersome abdominal bloating, LS Mean Value",[1]; 0 of 12 SNPs,2.18
same,"Bothersome abdominal pain, LS Mean Value",[1]; 0 of 12 SNPs,1.90
same,"Bothersome constipation, LS Mean Value",[1]; 0 of 12 SNPs,2.25
same,"Global constipation relief, LS Mean Value",[1]; 0 of 12 SNPs,2.20
same,"Satisfaction with bowel habit, LS Mean Value",[1]; 0 of 12 SNPs,2.48
same,"Bothersome abdominal bloating, LS Mean Value",[1]; >=1 of 12 SNPs,2.00
same,"Bothersome abdominal pain, LS Mean Value",[1]; >=1 of 12 SNPs,1.77
same,"Bothersome constipation, LS Mean Value",[1]; >=1 of 12 SNPs,1.87
same,"Global constipation relief, LS Mean Value",[1]; >=1 of 12 SNPs,1.95
same,"Satisfaction with bowel habit, LS Mean Value",[1]; >=1 of 12 SNPs,2.17
same,"Bothersome abdominal bloating, LS Mean Value",[1]; All geno,2.09
same,"Bothersome abdominal pain, LS Mean Value",[1]; All geno,1.84
same,"Bothersome constipation, LS Mean Value",[1]; All geno,2.07
same,"Global constipation relief, LS Mean Value",[1]; All geno,2.08
same,"Satisfaction with bowel habit, LS Mean Value",[1]; All geno,2.33
same,overall response rate,[2]; serotonin transporter promoter polymorphism C14-C14 homozygotes,45%
same,overall response rate,[2]; serotonin transporter promoter polymorphism C14-C16 heterozygotes,43%
same,overall response rate,[2]; serotonin transporter promoter polymorphism C16-C16 homozygotes,48%
same,OR,[2]; C14-C14 homozygotes,2.3
same,OR,[2]; C14-C16 heterozygotes,1.95
same,OR,[2]; C16-C16 homozygotes,3.51
same,response rate,[3],43%
